Results on ten compounds are retold here after patent US20040110265A1, “Recovery of enzyme activity from enveloped viruses” (priority 2001, published 2004).

Common to all, as to type: biochemical
For one assay, the system named is human plasma polymerase. Briefly: Resurrection of plasma polymerase activity after treatment with cysteine-modifying agents. Conditions: for Polymerase activity after second incubation with indicated substance (% of control): no destroying agent in first incubation. How it is done: A set of human plasma samples (60% plasma in water) was first incubated with 3 mM of indicated cysteine-modifying substance or water (as control) at room temperature for 1 hour. Serial dilutions of five potentially reactivating substances were then added and the samples were incubated for another hour. Each sample was finally diluted 1:20 and residual RT activity was determined with Cavidi® HS kit Lenti RT. The total reduction in substance concentration between sample incubation and RT assay was 200 times. The RT activities recovered were recalculated into percent of the activity of a control consisting of plasma incubated in absence of additions during both incubation steps.

Assay [1] deals with FIV RT of cell culture origin. Briefly: RT assay (Cavidi HS-kit Lenti RT) with added components, FIV RT. Conditions: 12 ng odT, 100% = no addition. How it is done: (§1) The effect of addition of indicated components to RT reaction mixture devoid of primer (Cavidi HS-kit Lenti RT) was investigated. EDTA plasma from two healthy blood donors (1 μl/assay), recombinant HIV 1 RT or FIV RT of cell culture origin was used as enzyme.

The subject of assay [2] is unidentified RT activity from human plasma. Briefly: RT assay (Cavidi HS-kit Lenti RT) with added components, human plasma polymerase. Conditions: 12 ng odT, 100% = no addition. How it is done: as §1
A further assay concerns the target T1, recombinant HIV 1 RT (Human immunodeficiency virus type 1 group M subtype B, UniProt P04585).
T1 construct: recombinant HIV 1 RT or FIV RT of cell culture origin was used as enzyme
Briefly: RT assay (Cavidi HS-kit Lenti RT) with added components, recombinant HIV 1 RT. Conditions: 12 ng odT, 100% = no addition. How it is done: as §1

[3] abbreviates: 0.1 M final concentration in RT assay.
The mark [4] stands for this setting: 1 mM final concentration in RT assay.
Setting [5] is: 2.5 10^-6 M final concentration in RT assay.

Consider `O[C@H](CS)[C@H](O)CS` (racemic) [DTT, Dithiothreitol], for which the “Polymerase activity after second incubation with indicated substance (% of control)” value in the assay with human plasma polymerase (1.1 mM substance) amounted to 260%; with human plasma polymerase (3.3 mM substance), 613%; in the assay with human plasma polymerase (10 mM substance), 767%; in the assay with human plasma polymerase (30 mM substance), 860%.

`Cc1ccc(S(=O)(=O)[N-]Cl)cc1.[Na+]` [Chloramine T]: the “Conditions required to reactivate polymerase activity treated with the agent” value with human plasma polymerase (3 mM agent, then reactivating substances) is on record as “required strongly reductive low molecular weight thiols for activation”. Moreover, the “Polymerase activity after second incubation with DTT (% of control)” value in the assay with human plasma polymerase (3 mM destroying agent first, 1.1 mM DTT) came out at 2%; with human plasma polymerase (3 mM destroying agent first, 3.3 mM DTT), 51%; in the assay on human plasma polymerase (3 mM destroying agent first, 10 mM DTT) it was 80%; with human plasma polymerase (3 mM destroying agent first, 30 mM DTT), 94%. The “Polymerase activity after second incubation with MSA (% of control)” value is reported as 6% in the assay with human plasma polymerase (3 mM destroying agent first, 1.1 mM MSA); 0% in the assay with human plasma polymerase (3 mM destroying agent first, 3.3 mM MSA); 1% with human plasma polymerase (3 mM destroying agent first, 10 mM MSA); 0% in the assay on human plasma polymerase (3 mM destroying agent first, 30 mM MSA). The “Polymerase activity after second incubation with cysteine (% of control)” value with human plasma polymerase (3 mM destroying agent first, 10 mM cysteine) worked out at 4%; with human plasma polymerase (3 mM destroying agent first, 30 mM cysteine), 9%. In addition, the “Polymerase activity after second incubation with glutathione (% of control)” value in the assay on human plasma polymerase (3 mM destroying agent first, 10 mM glutathione) came out at 3%.

`[Cl-].[K+]` [KCl]: the “Activity of indicated enzyme in RT assay, FIV” value (shortened to “Activity … FIV”) in assay [1] (setting [3]) was found to be 110%. Further, in assay [2] (setting [3]), the “Activity of indicated enzyme in RT assay, plasma 1” value (from here on “Activity … plasma 1”) is given as 17% and the “Activity of indicated enzyme in RT assay, plasma 2” value (from here on “Activity … plasma 2”) was 20%. Moreover, at recombinant HIV 1 RT (setting [3]), the “Activity of indicated enzyme in RT assay, HIV” value (from here on “Activity … HIV”) stood at 87%.

With `O=C(O)CC(S)C(=O)O` (centres unmarked) [MSA, Mercaptosuccinic acid], the “Polymerase activity after second incubation with indicated substance (% of control)” value in the assay on human plasma polymerase (1.1 mM substance) is reported as 109%; in the assay with human plasma polymerase (3.3 mM substance), 110%; in the assay on human plasma polymerase (10 mM substance), 64%; with human plasma polymerase (30 mM substance), 7%.

Turning to `O=C([O-])P(=O)(O)O.O=C([O-])P(=O)(O)O.O=C([O-])P(=O)(O)O.[Na+].[Na+].[Na+]` [PFA, trisodium phosophonoformate], in assay [2] (setting [4]), the “Activity … plasma 1” value is 92% and the “Activity … plasma 2” value was 94%. In addition, the “Activity … HIV” value at recombinant HIV 1 RT (setting [4]) turned out to be 1%.

Regarding `NCCS` [cysteamine], the “Polymerase activity after second incubation with indicated substance (% of control)” value with human plasma polymerase (1.1 mM substance) is reported as 15%; in the assay on human plasma polymerase (3.3 mM substance), 9%; in the assay with human plasma polymerase (10 mM substance), 6%; in the assay with human plasma polymerase (30 mM substance), 6%.

Regarding `N[C@@H](CS)C(=O)O` [cysteine], the “Polymerase activity after second incubation with indicated substance (% of control)” value worked out at 72% with human plasma polymerase (1.1 mM substance), 82% in the assay on human plasma polymerase (3.3 mM substance), 145% with human plasma polymerase (10 mM substance) and 198% in the assay with human plasma polymerase (30 mM substance).

For `Nc1ncnc2c1ncn2[C@H]1CC[C@@H](COP(=O)(O)OP(=O)(O)OP(=O)(O)O)O1` [ddATP], the “Activity … FIV” value in assay [1] (setting [5]) amounted to 79%. In addition, in assay [2] (setting [5]), the “Activity … plasma 1” value was 94% and the “Activity … plasma 2” value is 105%. Besides, at recombinant HIV 1 RT (setting [5]), the “Activity … HIV” value amounted to 90%.

Turning to `Nc1ccn([C@H]2CC[C@@H](COP(=O)(O)OP(=O)(O)OP(=O)(O)O)O2)c(=O)n1` [ddCTP], in assay [1] (setting [5]), the “Activity … FIV” value stood at 75%. In assay [2] (setting [5]), the “Activity … plasma 1” value is 94% and the “Activity … plasma 2” value is reported as 103%. Also, on recombinant HIV 1 RT (setting [5]), the “Activity … HIV” value came to 89%.

In the case of `N[C@@H](CCC(=O)N[C@@H](CS)C(=O)NCC(=O)O)C(=O)O` [glutathione], the “Polymerase activity after second incubation with indicated substance (% of control)” value in the assay on human plasma polymerase (1.1 mM substance) worked out at 72%; with human plasma polymerase (3.3 mM substance) it was 78%; in the assay with human plasma polymerase (10 mM substance), 80%; in the assay on human plasma polymerase (30 mM substance) it was 13%.
